Results from the NIST ThermoML archive (doi:10.1016/j.jct.2018.12.019).

Assay: xn = mol fraction of the nth substance listed
Conditions: 98 kPa, Liquid; for speed of sound: Frequency=3 MHz, Single path-length method; for mass density: Vibrating tube method

Cn1ccnc1 [1-methylimidazole] + O
Conditions | mass density, 288.15 K [kg/m3] | mass density, 298.15 K [kg/m3] | mass density, 308.15 K [kg/m3] | mass density, 318.15 K [kg/m3] | mass density, 328.15 K [kg/m3] | speed of sound, 288.15 K [m/s] | speed of sound, 298.15 K [m/s] | speed of sound, 308.15 K [m/s] | speed of sound, 318.15 K [m/s] | speed of sound, 328.15 K [m/s]
x1 = 0.0521 | 1011.8 | 1007.6 | 1002.76 | 997.34 | 991.41 | 1581.3 | 1587 | 1588.8 | 1586.8 | 1581.4
x1 = 0.1076 | 1022.54 | 1016.8 | 1010.63 | 1004.04 | 997.06 | 1645.6 | 1636.9 | 1625.7 | 1612.2 | 1596.3
x1 = 0.2035 | 1035.77 | 1028.46 | 1020.89 | 1013.06 | 1004.95 | 1705.3 | 1682.6 | 1658.4 | 1633.1 | 1606.6
x1 = 0.3041 | 1044.45 | 1036.28 | 1027.92 | 1019.36 | 1010.6 | 1731.5 | 1707.2 | 1669.9 | 1638.1 | 1605.7
x1 = 0.4017 | 1048.95 | 1040.34 | 1031.57 | 1022.64 | 1013.55 | 1735.5 | 1701.4 | 1667.7 | 1631.6 | 1596.3
x1 = 0.5053 | 1050.2 | 1041.41 | 1032.48 | 1023.41 | 1014.19 | 1723.2 | 1687.5 | 1651.3 | 1615 | 1578.4
x1 = 0.6052 | 1048.91 | 1040.12 | 1031.21 | 1022.16 | 1012.98 | 1702.4 | 1666.6 | 1630.2 | 1593.7 | 1557
x1 = 0.7018 | 1046.64 | 1037.87 | 1028.99 | 1020.01 | 1010.92 | 1681.9 | 1645.8 | 1609.4 | 1573 | 1536.5
x1 = 0.8044 | 1043.96 | 1035.17 | 1026.32 | 1017.39 | 1008.38 | 1662.5 | 1626 | 1589.3 | 1552.7 | 1516.3
x1 = 0.9031 | 1041.64 | 1032.83 | 1023.98 | 1015.07 | 1006.1 | 1647.8 | 1610.9 | 1573.7 | 1536.9 | 1500.3
x1 = 0.9555 | 1040.49 | 1031.66 | 1022.8 | 1013.91 | 1004.96 | 1640.8 | 1603.8 | 1566.4 | 1529.3 | 1492.6
x1 = 1 | 1039.36 | 1030.52 | 1021.66 | 1012.76 | 1003.83 | 1634.1 | 1596.5 | 1559 | 1521.8 | 1485

Cn1ccnc1 [1-methylimidazole] + CO
Conditions | mass density, 288.15 K [kg/m3] | mass density, 298.15 K [kg/m3] | mass density, 308.15 K [kg/m3] | mass density, 318.15 K [kg/m3] | mass density, 328.15 K [kg/m3] | speed of sound, 288.15 K [m/s] | speed of sound, 298.15 K [m/s] | speed of sound, 308.15 K [m/s] | speed of sound, 318.15 K [m/s] | speed of sound, 328.15 K [m/s]
x1 = 0.0507 | 822.81 | 813.46 | 804.03 | 794.49 | 784.81 | 1185.2 | 1151.8 | 1118.6 | 1085.8 | 1053.3
x1 = 0.1009 | 846.62 | 837.31 | 827.92 | 818.41 | 808.78 | 1230.7 | 1196.9 | 1163.2 | 1130 | 1097.2
x1 = 0.1961 | 884.53 | 875.26 | 865.91 | 856.48 | 846.92 | 1305.4 | 1270.8 | 1236.4 | 1202.4 | 1168.7
x1 = 0.296 | 918.09 | 908.87 | 899.58 | 890.21 | 880.75 | 1374 | 1338.8 | 1303.7 | 1268.9 | 1234.5
x1 = 0.3988 | 946.5 | 937.33 | 928.11 | 918.82 | 909.45 | 1434.1 | 1398.4 | 1362.7 | 1327.4 | 1292.4
x1 = 0.5058 | 969.95 | 960.86 | 951.71 | 942.51 | 933.23 | 1484.7 | 1448.5 | 1412.4 | 1376.6 | 1341.1
x1 = 0.6096 | 989.14 | 980.11 | 971.04 | 961.92 | 952.74 | 1526.2 | 1489.6 | 1453 | 1416.8 | 1380.9
x1 = 0.7023 | 1003.69 | 994.72 | 985.72 | 976.66 | 967.55 | 1558 | 1521.2 | 1484.3 | 1447.8 | 1411.7
x1 = 0.8018 | 1017.21 | 1008.3 | 999.35 | 990.36 | 981.32 | 1587.5 | 1550.4 | 1513.3 | 1476.5 | 1440.5
x1 = 0.8994 | 1028.89 | 1020.02 | 1011.12 | 1002.18 | 993.19 | 1612.9 | 1575.6 | 1538.2 | 1501.2 | 1464.5
x1 = 0.951 | 1034.48 | 1025.61 | 1016.76 | 1007.87 | 998.91 | 1625 | 1587.6 | 1550.1 | 1513 | 1476.2
x1 = 1 | 1039.36 | 1030.52 | 1021.66 | 1012.76 | 1003.83 | 1634.1 | 1596.5 | 1559 | 1521.8 | 1485
